Measurements reported in patent US20240174663A1, “PYRIMIDINE OR PYRIDINE DERIVATIVES USEFUL AS HCN2 MODULATORS” (King's College London, priority 2021, published 2024).
Structures can show the parent of a compound that is named as a salt.

Columns and labels:
[1] = target: T1, HCN2 (Homo sapiens, UniProt Q9UL51); assay: HCN2 assay using PatchXpress 7000A (PX protocol, Example 25); format: cell-based; conditions: room temperature
T1 sequence (Q9UL51 1-889): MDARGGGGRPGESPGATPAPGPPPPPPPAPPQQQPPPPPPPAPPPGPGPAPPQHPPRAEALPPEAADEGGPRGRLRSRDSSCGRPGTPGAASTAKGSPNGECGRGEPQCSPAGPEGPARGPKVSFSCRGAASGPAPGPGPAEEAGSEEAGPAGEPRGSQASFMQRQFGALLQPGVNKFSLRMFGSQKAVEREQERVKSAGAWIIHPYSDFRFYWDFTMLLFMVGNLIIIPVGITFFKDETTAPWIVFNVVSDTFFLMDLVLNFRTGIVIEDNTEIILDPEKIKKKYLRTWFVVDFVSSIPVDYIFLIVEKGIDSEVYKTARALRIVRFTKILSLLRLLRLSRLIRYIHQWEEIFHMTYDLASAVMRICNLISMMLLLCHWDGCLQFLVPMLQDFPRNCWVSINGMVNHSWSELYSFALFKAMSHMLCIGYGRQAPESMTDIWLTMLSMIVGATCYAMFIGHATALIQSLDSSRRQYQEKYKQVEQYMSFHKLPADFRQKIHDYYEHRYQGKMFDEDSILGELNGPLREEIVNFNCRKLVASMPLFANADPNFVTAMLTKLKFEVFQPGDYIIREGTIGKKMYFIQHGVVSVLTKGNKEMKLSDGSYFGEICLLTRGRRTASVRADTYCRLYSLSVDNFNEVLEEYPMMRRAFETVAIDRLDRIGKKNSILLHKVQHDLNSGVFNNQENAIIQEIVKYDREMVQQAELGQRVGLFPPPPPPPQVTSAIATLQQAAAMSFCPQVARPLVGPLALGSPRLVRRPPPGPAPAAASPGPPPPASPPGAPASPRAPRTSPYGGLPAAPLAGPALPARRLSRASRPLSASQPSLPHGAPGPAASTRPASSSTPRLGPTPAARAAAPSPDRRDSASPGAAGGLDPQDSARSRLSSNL
Experimental: (§1) Example 25: Assay for HCN1 HCN2 and HCN4 Using PatchXpress 7000A
(§2) Solutions for recording HCN currents were:
The membrane voltage was then stepped back to −30 mV for a further 8 seconds.
(§3) The peak inward current measured at the end of the pulse to −110 mV (HCN1 and HCN2) or −130 mV (HCN4) was measured and any leak current subtracted to calculate the HCN current. The HCN current amplitude was measured after each control or compound addition and normalized to the control amplitude (Control A).
(§4) All experiments were performed at room temperature (approximately 22° C.).
(§5) Each test compound concentration was applied to the cell for seven (7) minutes, at which point the next cumulative concentration was applied.

[2] = target: T2, HCN4 (Homo sapiens, UniProt Q9Y3Q4); assay: HCN4 assay using PatchXpress 7000A (PX protocol, Example 25); format: cell-based; conditions: room temperature
T2 sequence (Q9Y3Q4 1-1203): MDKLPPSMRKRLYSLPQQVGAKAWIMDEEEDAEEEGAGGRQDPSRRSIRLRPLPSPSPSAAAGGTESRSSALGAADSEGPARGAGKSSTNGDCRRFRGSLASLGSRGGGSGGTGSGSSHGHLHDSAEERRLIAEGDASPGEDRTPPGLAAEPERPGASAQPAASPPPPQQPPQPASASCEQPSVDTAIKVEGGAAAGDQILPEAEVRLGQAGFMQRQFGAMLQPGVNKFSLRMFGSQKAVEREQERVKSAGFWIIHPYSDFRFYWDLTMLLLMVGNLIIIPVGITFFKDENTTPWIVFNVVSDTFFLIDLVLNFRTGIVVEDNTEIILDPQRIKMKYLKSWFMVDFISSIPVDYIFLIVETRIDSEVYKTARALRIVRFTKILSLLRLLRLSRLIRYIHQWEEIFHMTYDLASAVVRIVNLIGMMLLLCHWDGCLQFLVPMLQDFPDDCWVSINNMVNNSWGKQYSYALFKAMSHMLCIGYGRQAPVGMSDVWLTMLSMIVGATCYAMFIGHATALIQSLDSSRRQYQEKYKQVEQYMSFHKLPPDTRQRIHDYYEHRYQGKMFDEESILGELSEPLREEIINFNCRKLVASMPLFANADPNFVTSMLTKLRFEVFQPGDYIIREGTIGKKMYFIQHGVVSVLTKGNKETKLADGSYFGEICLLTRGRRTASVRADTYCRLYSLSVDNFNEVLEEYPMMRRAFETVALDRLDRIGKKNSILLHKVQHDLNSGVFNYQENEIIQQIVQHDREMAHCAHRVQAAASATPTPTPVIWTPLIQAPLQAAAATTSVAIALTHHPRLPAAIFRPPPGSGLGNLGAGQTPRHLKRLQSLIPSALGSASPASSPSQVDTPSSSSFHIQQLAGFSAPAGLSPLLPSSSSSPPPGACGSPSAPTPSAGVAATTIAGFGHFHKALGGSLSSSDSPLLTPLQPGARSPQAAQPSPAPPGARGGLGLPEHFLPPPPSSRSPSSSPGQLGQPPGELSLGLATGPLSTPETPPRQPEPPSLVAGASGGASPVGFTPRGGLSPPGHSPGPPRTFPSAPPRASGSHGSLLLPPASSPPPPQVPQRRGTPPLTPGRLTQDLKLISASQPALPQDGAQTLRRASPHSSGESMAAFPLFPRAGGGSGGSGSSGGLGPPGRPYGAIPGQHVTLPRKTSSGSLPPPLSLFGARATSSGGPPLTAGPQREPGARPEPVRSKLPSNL
Experimental: as §1, §2, §3, §4, §5

Row | SMILES | IC50 [1] [µM] | IC50 [2] [µM]
1 | Cc1ccc(Br)nc1C[C@H](N)c1ncccc1-c1noc2ccccc12 [Example 22, (S)-1-[3-(Benzo[d]isoxazol-3-yl)pyridine-2-yl]-2-(6-bromo-3-methylpyridine-2-yl)ethan-1-amine hydrochloride] | 1.6 | 10.3
2 | CN(C)C(=O)c1cccc(C[C@H](N)c2ncccc2-c2noc3ccccc23)n1 [Example 18, (S)-6-{2-Amino-2-[3-(benzoy[d]isoxazol-3-yl)pyridine-2-yl]ethyl}-N,N-dimethylpyridine-2-carboxamide] | 11.2 | > 30
3 | Cc1cccc(C[C@H](N)c2ncccc2-c2noc3ccccc23)n1 [Example 11, (S)-1-[3-(Benzoy[d]isoxazol-3-yl)pyridine-2-yl]-2-(6-methylpyridine-2-yl)ethan-1-amine hydrochloride] | 5.1 | 22.9
4 | N[C@@H](Cc1ccccn1)c1ncccc1-c1noc2ccccc12 [Example 6, (S)-1-[3-(Benzoy[d]isoxazol-3-yl)pyridine-2-yl}-2-(pyridine-2-yl)ethan-1-amine hydrochloride] | 2.2 | > 30
5 | N[C@@H](Cc1ccccn1)c1ccccc1-c1noc2cnccc12 [Example 14, (S)-1-[2-(Isoxazolo[5,4-c]pyridine-3-yl)phenyl]-2-(pyridin-2-yl)ethan-1-amine] | 12.3 | –
6 | Cc1ccc(F)c(C[C@H](N)c2ncccc2-c2noc3ccccc23)n1 [Example 24, (S)-1-[3-(Benzo[d]isoxazol-3-yl)pyridine-2-yl]-2-(3-fluoro-6-methylpyridine-2-yl)ethan-1-amine hydrochloride] | 4.2 | –
7 | Cn1nc(-c2ccccc2[C@@H](N)Cc2cccc(C#N)n2)c2ccncc21 [Example 16, (S)-6-{2-Amino-2-[2-(1-methyl-1H-pyrazolo[3,4-c]pyridine-3-yl)phenyl]ethyl}pyridine-2-carbonitrile] | 6.8 | > 30
8 | N[C@@H](Cc1ncccn1)c1ncccc1-c1noc2ccccc12 [Example 20, (S)-1-[3-(Benzo[d]isoxazol-3-yl)pyridine-2-yl]-2-(pyrimidin-2-yl)ethan-1-amine] | 9 | > 30
9 | Cn1nc(-c2ccccc2[C@@H](N)Cc2ccccn2)c2ccncc21 [Example 8, (S)-1-[2-(1-Methyl-1H-pyrazolo[3,4-c]pyridine-3-yl)phenyl]-2-(pyridine-2-yl)ethan-1-amine hydrochloride] | 7.9 | > 30
10 | Cc1ccc(-c2noc3ccccc23)c([C@@H](N)Cc2ccccn2)n1 [Example 9, (S)-1-[3-(Benzoy[d]isoxazol-3-yl)-6-methylpyridine-2-yl]-2-(pyridine-2-yl)ethan-1-amine hydrochloride] | 3.2 | > 30
11 | N[C@@H](Cc1ccccn1)c1cccnc1-c1noc2ccccc12 [Example 5, (S)-1-[2-(Benzoy[d]isoxazol-3-yl)pyridine-3-yl}-2-(pyridine-2-yl)ethan-1-amine hydrochloride] | 19 | –
12 | NC(=O)c1cccc(C[C@H](N)c2ncccc2-c2noc3ccccc23)n1 [Example 17, (S)-6-{2-Amino-2-[3-(benzoy[d]isoxazol-3-yl)pyridine-2-yl]ethyl}pyridine-2-carboxamide] | 6.4 | > 30
13 | N#Cc1cccc(C[C@H](N)c2ncccc2-c2noc3ccccc23)n1 [Example 10, (S)-6-{2-Amino-2-[3-(benzoy[d]isoxazol-3-yl)pyridine-2-yl]ethyl}pyridine-2-carbonitrile hydrochloride] | 1.9 | 16.7
14 | Cn1nc(-c2ccccc2[C@@H](N)Cc2ccccn2)c2cccnc21 [Example 1, (S)-1-[2-(1-Methyl-1H-pyrazolo[3,4-b]pyridine-3-yl)phenyl]-2-(pyridin-2-yl)ethan-1-amine hydrochloride] | 16.8 | –
15 | N[C@@H](Cc1ncccc1F)c1ncccc1-c1noc2ccccc12 [Example 23, (S)-1-[3-(Benzo[d]isoxazol-3-yl)pyridine-2-yl]-2-(3-fluoropyridine-2-yl)ethan-1-amine hydrochloride] | 1.7 | 9.5
16 | N[C@@H](Cc1ccccn1)c1ccccc1-c1noc2ncccc12 [Example 2, (S)-1-[2-(Isoxazolo[5,4-b]pyridine-3-yl)phenyl]-2-(pyridin-2-yl)ethan-1-amine] | 10.2 | –
17 | N[C@@H](Cc1ccccn1)c1ccncc1-c1noc2ccccc12 [Example 7, (S)-1-[3-(Benzoy[d]isoxazol-3-yl)pyridine-4-yl}-2-(pyridine-2-yl)ethan-1-amine hydrochloride] | 13.8 | –
18 | CN(C)C(=O)CCc1cccc(C[C@H](N)c2ncccc2-c2noc3ccccc23)n1 [Example 21, (S)-3-(6-{2-Amino-2-[3-(benzo[d]isoxazol-3-yl)pyridine-2-ylethyl}priding-2-yl)-N,N-dimethylpropanamide hydrochloride] | 8.9 | > 30
19 | Cc1cccc(C[C@H](N)c2ccccc2-c2nn(C)c3cnccc23)n1 [Example 15, (S)-1-[2-(1-Methyl-1H-pyrazolo[3,4-c]pyridine-3-yl)phenyl]-2-(6-methylpyridine-2-yl)ethan-1-amine hydrochloride] | 7.7 | > 30
20 | N[C@@H](Cc1cccc(OCCO)n1)c1ncccc1-c1noc2ccccc12 [Example 19, (S)-2-[(6-{2-Amino-2-[3-(benzoy[d]isoxazol-3-yl)pyridine-2-yl]ethyl}pyridine-2-yl)oxy]ethano-1-ol] | 4 | > 30
21 | CC(c1ccccn1)[C@H](N)c1ncccc1-c1noc2ccccc12 (single isomer, unassigned) [Example 13, hydrochloride] | 9.6 | –
22 | Cn1nc(-c2cccnc2[C@@H](N)Cc2ccccn2)c2ccccc21 [Example 3, (S)-1-[3-(1-Methyl-1H-indazol-3-yl)pyridine-2-yl]-2-(pyridin-2-yl)ethan-1-amine hydrochloride] | 5.7 | > 30
23 | CC(c1ccccn1)[C@H](N)c1ncccc1-c1noc2ccccc12 (single isomer, unassigned) [Example 12, hydrochloride] | 4.5 | –
